Measurements as given in patent US20080200404A1, “Novel Antimalarial 9A-Carbamoyl-Aminoalkyl and 9A-Thiocarbamoyl-Aminoalkyl Azalides” (priority 2005, published 2008).
Converted amounts (≈) assume the structure as drawn. Where two headings read alike, the source gives them in different places.

How the values were obtained:
Format in all cases: cell-based
[1] = system: Plasmodium falciparum TM91C235; assay: In vitro antimalarial [3H]-hypoxanthine incorporation assay, TM91C235; conditions: P. falciparum TM91C235 (multiple drug resistant isolate), 72 hours exposure; for IC50: Plasmodium falciparum
From the text: (§1) The in vitro screens for intrinsic antimalarial activity were based on modifications of the procedures described by Desjardins R E, Canfield C J, Haynes J D, Chulay J D. (Quantitative assessment of antimalarial activity in vitro by a semiautomated microdilution technique. Antimicrob Agents Chemother. 1979 December; 16(6):710-8.), Chulay J D, Haynes J D, Diggs C L. (Plasmodium falciparum: Assessment of in vitro growth by [3H]hypoxanthine incorporation. Exp. Parasitol. 1983 55:138-146.), and Milhous W K, Weatherly N F, Bowdre J H, Desjardins R E. (In vitro activities of and mechanisms of resistance to antifol antimalarial drugs. Antimicrob Agents Chemother. 1985 April; 27(4):525-30.). The system was limited to the assessment of the intrinsic activity against the erythrocytic asexual life cycle (blood schizontocides). Two Plasmodium falciparum clones from CDC/Indochina III (W-2) and CDC/Sierra Leone I (D-6) (Oduola A M, Weatherly N F, Bowdre J H, Desjardins R E. Plasmodium falciparum: cloning by single-erythrocyte micromanipulation and heterogeneity in vitro. Exp Parasitol. 1988 66(1):86-95.) were used for all assays. TM91C235, a multiple drug resistant isolate from Thailand, was used for the prescreening assay. W-2 is resistant to chloroquine, quinine, and pyrimethamine and susceptible to mefloquine. D-6 tends to be more resistant to mefloquine and susceptible to chloroquine, quinine, and pyrimethamine. All documents cited in this paragraph are incorporated by reference in their entirety.
(§2) All parasites were maintained in continuous long term cultures in RPMI-1640 medium supplemented with 6% washed human A positive (A+)(erythrocytes, 25 mM Hepes, […], and 10% heat inactivated A+human plasma or ALBUMAX® (lipid-rich bovine serum albumin; Invitrogen, Carlsbad, Calif.). All cultures and assays were conducted at 37° C. under an atmosphere of 5% CO2 and 5% O2, with a balance of N2.
The prescreening assay uses TM91C235 diluted at a 0.4% parasitemia in a 1% hematocrit in folic acid free and p-aminobenzoic acid free media RPMI-1640 and ALBUMAX®. One mg of the compound is typically dissolved in 100 μl of dimethyl sulfoxide (DMSO). The compound is further diluted in culture medium (FF) with ALBUMAX® for the first initial starting concentration. The rest of the stock drug solution was kept at −70° C. The isolate was preexposed, in duplicate, at three concentrations (25,000 ng/ml, 2,500 ng/ml, and 25 ng/ml) of the test compound for 48 hr in a 96-well microtiter plate (MTP) using the BIOMEK® 2000 automated laboratory workstation. Each MTP contains chloroquine as control to assess the relative activity of the compound and to monitor the response of TM91C235.
(§3) After the preincubation, [^3H]-hypoxanthine was added to each well of the MTP. (The assay relies on the incorporation of radiolabeled hypoxanthine by the parasites, which indicates reproduction, and inhibition of isotope incorporation was attributed to activity of known or candidate antimalarial drugs). After 72 hr of total incubation time, the MTP were frozen to lyse the erythrocytes and parasites. The parasite DNA was recovered by harvesting the lysate onto glass-fiber filter plates using a Packard FilterMate™ Cell Harvester. The radioactivity was counted on a Packard TopCount™ microplate scintillation counter. The results were recorded as counts per minutes (CPM) per well at each drug concentration divided by the arithmetic mean of the CPM from the three untreated infection parasite control wells.
The serial dilution assay was conducted using the same assay conditions and stock solution of the compound used for the preliminary screen, described above. Both the D-6 and the W-2 clones were used. The compounds were diluted two-fold over 11 different concentration ranges with a starting concentration that was based on the preliminary screen. […]

[2] = system: Plasmodium falciparum clone CDC/Indochina III (W-2); assay: In vitro antimalarial [3H]-hypoxanthine incorporation serial dilution assay, W2; conditions: P. falciparum W2, 72 hours exposure; for IC50: Plasmodium falciparum
From the text: as §1, §2, §3
(§4) The serial dilution assay was conducted using the same assay conditions and stock solution of the compound used for the preliminary screen, described above. Both the D-6 and the W-2 clones were used. The compounds were diluted two-fold over 11 different concentration ranges with a starting concentration that was based on the preliminary screen. For each drug, the concentration response profile was determined and 50% inhibitory concentrations (IC50) were determined by using a non-linear, logistic dose response analysis program. […] For each assay, the IC50 for each clone was determined against the known antimalarials chloroquine and mefloquine. These control values established the compound's relative parasite susceptibility profile compared to known antimalarials. […]
(§5) The in vitro potency of the compounds has been compared with that of azithromycin to better gauge compounds suitable for further testing. As described above, parasites were exposed for 72 hours. Data from the in vitro potency tests of azithromycin against the three parasite strains have been averaged, and these numbers have been used for identification of “active” macrolide compounds.

[3] = system: Plasmodium falciparum clone CDC/Sierra Leone I (D-6); assay: In vitro antimalarial [3H]-hypoxanthine incorporation serial dilution assay, D6; conditions: P. falciparum D6, 72 hours exposure; for IC50: Plasmodium falciparum, D6, 72 h
From the text: as §1, §2, §3, §4, §5

[4] = compared with azithromycin, read-out: IC50 D6 (class symbol)

SMILES | IC50 TM91C235 [1] [µg/mL] | IC50 W2 [2] [µg/mL] | IC50 D6 [3] [µg/mL] | IC50 [1] [µg/mL] | IC50 [3, 4] [µg/mL] | IC50 [2] [µg/mL] | IC50 ([3]; read-out: IC50 D6) [µg/mL]
CC[C@H]1OC(=O)[C@H](C)[C@@H](O[C@H]2C[C@@](C)(OC)[C@@H](O)[C@H](C)O2)[C@H](C)[C@@H](O[C@@H]2O[C@H](C)C[C@H](N(C)C)[C@H]2O)[C@](C)(O)C[C@@H](C)CN(CCNC(=O)NC(C)C)[C@H](C)[C@@H](O)[C@]1(C)O [Example 1, 9-Deoxo-9-dihydro-9a-(N′-isopropylcarbamoyl-β-aminoethyl)-9a-aza-9a-homoerythromycin A] | 0.6191 (≈ 0.717 µM) | 1.777 (≈ 2.06 µM) | – | – | – | – | –
CCC1OC(=O)C(C)C(OC2CC(C)(OC)C(O)C(C)O2)C(C)C(OC2OC(C)CC(N(C)C)C2O)C(C)(O)CC(C)CN(CCNC(=O)Nc2cccc3ccccc23)C(C)C(O)C1(C)O (stereo not drawn) [Example 2, 9-Deoxo-9-dihydro-9a-[N′-(1-naphtyl)carbamoyl-β-aminoethyl]-9a-aza-9a-homoerythromycin A] | 0.0399 (≈ 0.0421 µM) | 0.0744 (≈ 0.0785 µM) | 0.1344 (≈ 0.142 µM) | – | – | – | –
CCC1OC(=O)C(C)C(OC2CC(C)(OC)C(O)C(C)O2)C(C)C(OC2OC(C)CC(N(C)C)C2O)C(C)(O)CC(C)CN(CCNC(=O)NCc2ccccc2)C(C)C(O)C1(C)O (stereo not drawn) [Example 3, 9-Deoxo-9-dihydro-9a-(N′-benzylcarbamoyl-β-aminoethyl)-9a-aza-9a-homoerythromycin A] | 0.1547 (≈ 0.17 µM) | 0.2617 (≈ 0.287 µM) | 0.292 (≈ 0.32 µM) | – | – | – | –
CCC1OC(=O)C(C)C(OC2CC(C)(OC)C(O)C(C)O2)C(C)C(OC2OC(C)CC(N(C)C)C2O)C(C)(O)CC(C)CN(CCNC(=O)Nc2ccc3ccccc3c2)C(C)C(O)C1(C)O (stereo not drawn) [Example 12, 9-Deoxo-9-dihydro-9a-[N′-(2-naphtyl)carbamoyl-β-aminoethyl]-9a-aza-9a-homoerythromycin A] | 0.0289 (≈ 0.0305 µM) | 0.0432 (≈ 0.0456 µM) | 0.0713 (≈ 0.0753 µM) | – | – | – | –
CC[C@H]1OC(=O)[C@H](C)[C@@H](O[C@H]2C[C@@](C)(OC)[C@@H](O)[C@H](C)O2)[C@H](C)[C@@H](O[C@@H]2O[C@H](C)C[C@H](N(C)C)[C@H]2O)[C@](C)(O)C[C@@H](C)CN(CCCNC(=O)NC(C)(C)C)[C@H](C)[C@@H](O)[C@]1(C)O [Example 53] | – | – | – | 0.713 (≈ 0.8 µM) | > 0.797 | 0.366 (≈ 0.41 µM) | –
CCC(C)NC(=O)NCCCN1C[C@H](C)C[C@@](C)(O)[C@H](O[C@@H]2O[C@H](C)C[C@H](N(C)C)[C@H]2O)[C@@H](C)[C@H](O[C@H]2C[C@@](C)(OC)[C@@H](O)[C@H](C)O2)[C@@H](C)C(=O)O[C@H](CC)[C@@](C)(O)[C@H](O)[C@H]1C (stereo partly drawn) [Example 55] | – | – | – | 1.05 (≈ 1.18 µM) | > 0.797 | 0.435 (≈ 0.489 µM) | –
CC[C@H]1OC(=O)[C@H](C)[C@@H](O[C@H]2C[C@@](C)(OC)[C@@H](O)[C@H](C)O2)[C@H](C)[C@@H](O[C@@H]2O[C@H](C)C[C@H](N(C)C)[C@H]2O)[C@](C)(O)C[C@@H](C)CN(CCCNC(=O)NC2CCCC2)[C@H](C)[C@@H](O)[C@]1(C)O [Example 56] | – | – | – | 0.556 (≈ 0.616 µM) | > 0.797 | 0.251 (≈ 0.277 µM) | –
CC[C@H]1OC(=O)[C@H](C)[C@@H](O[C@H]2C[C@@](C)(OC)[C@@H](O)[C@H](C)O2)[C@H](C)[C@@H](O[C@@H]2O[C@H](C)C[C@H](N(C)C)[C@H]2O)[C@](C)(O)C[C@@H](C)CN(CCCNC(=O)NCc2ccco2)[C@H](C)[C@@H](O)[C@]1(C)O [Example 57] | – | – | – | 0.454 (≈ 0.496 µM) | > 0.797 | 0.263 (≈ 0.287 µM) | –
CC[C@H]1OC(=O)[C@H](C)[C@@H](O[C@H]2C[C@@](C)(OC)[C@@H](O)[C@H](C)O2)[C@H](C)[C@@H](O[C@@H]2O[C@H](C)C[C@H](N(C)C)[C@H]2O)[C@](C)(O)C[C@@H](C)CN(CCCNC(=O)NC2CCCCC2)[C@H](C)[C@@H](O)[C@]1(C)O [Example 58] | – | – | – | 0.377 (≈ 0.411 µM) | > 0.797 | 0.169 (≈ 0.185 µM) | –
CC[C@H]1OC(=O)[C@H](C)[C@@H](O[C@H]2C[C@@](C)(OC)[C@@H](O)[C@H](C)O2)[C@H](C)[C@@H](O[C@@H]2O[C@H](C)C[C@H](N(C)C)[C@H]2O)[C@](C)(O)C[C@@H](C)CN(CCCNC(=O)Nc2ccc(C#N)cc2)[C@H](C)[C@@H](O)[C@]1(C)O [Example 59] | – | – | – | 0.193 (≈ 0.206 µM) | – | 0.092 (≈ 0.0983 µM) | 0.362 (≈ 0.386 µM)
CCc1ccc(NC(=O)NCCCN2C[C@H](C)C[C@@](C)(O)[C@H](O[C@@H]3O[C@H](C)C[C@H](N(C)C)[C@H]3O)[C@@H](C)[C@H](O[C@H]3C[C@@](C)(OC)[C@@H](O)[C@H](C)O3)[C@@H](C)C(=O)O[C@H](CC)[C@@](C)(O)[C@H](O)[C@H]2C)cc1 [Example 60] | – | – | – | 0.0933 (≈ 0.0993 µM) | – | 0.0693 (≈ 0.0738 µM) | 0.212 (≈ 0.226 µM)

Further lines, results first:

IC50 TM91C235 [1] [µg/mL] | IC50 W2 [2] [µg/mL] | IC50 D6 [3] [µg/mL] | IC50 [1] [µg/mL] | IC50 [3, 4] [µg/mL] | IC50 [2] [µg/mL] | IC50 ([3]; read-out: IC50 D6) [µg/mL] | SMILES
– | – | – | 0.436 | > 0.797 | 0.253 | – | CC[C@H]1OC(=O)[C@H](C)[C@@H](O[C@H]2C[C@@](C)(OC)[C@@H](O)[C@H](C)O2)[C@H](C)[C@@H](O[C@@H]2O[C@H](C)C[C@H](N(C)C)[C@H]2O)[C@](C)(O)C[C@@H](C)CN(CCCNC(=S)Nc2ccc(OC)cc2)[C@H](C)[C@@H](O)[C@]1(C)O.O=CO [Example 61]
– | – | – | 0.11 (≈ 0.115 µM) | – | 0.0502 (≈ 0.0523 µM) | 0.373 (≈ 0.389 µM) | CC[C@H]1OC(=O)[C@H](C)[C@@H](O[C@H]2C[C@@](C)(OC)[C@@H](O)[C@H](C)O2)[C@H](C)[C@@H](O[C@@H]2O[C@H](C)C[C@H](N(C)C)[C@H]2O)[C@](C)(O)C[C@@H](C)CN(CCCNC(=S)Nc2cc(F)ccc2C)[C@H](C)[C@@H](O)[C@]1(C)O [Example 62]
– | – | – | 0.542 (≈ 0.571 µM) | > 0.797 | 0.141 (≈ 0.149 µM) | – | CC[C@H]1OC(=O)[C@H](C)[C@@H](O[C@H]2C[C@@](C)(OC)[C@@H](O)[C@H](C)O2)[C@H](C)[C@@H](O[C@@H]2O[C@H](C)C[C@H](N(C)C)[C@H]2O)[C@](C)(O)C[C@@H](C)CN(CCCNC(=O)Nc2ccc(CC#N)cc2)[C@H](C)[C@@H](O)[C@]1(C)O [Example 63]
– | – | – | 0.0572 (≈ 0.055 µM) | – | – | 0.127 (≈ 0.122 µM) | CC[C@H]1OC(=O)[C@H](C)[C@@H](O[C@H]2C[C@@](C)(OC)[C@@H](O)[C@H](C)O2)[C@H](C)[C@@H](O[C@@H]2O[C@H](C)C[C@H](N(C)C)[C@H]2O)[C@](C)(O)C[C@@H](C)CN(CCCN(CCC(N)=O)C(=S)NCCCc2ccccc2)[C@H](C)[C@@H](O)[C@]1(C)O [Example 167, 9-Deoxo-9-dihydro-9a-{N′-(β-amidoethyl)-N′-[γ-(phenylpropyl)thiocarbamoyl]-γ-aminopropyl}-9a-aza-9a-homoerythromycin A]
– | – | – | 0.128 (≈ 0.151 µM) | – | – | 0.543 (≈ 0.639 µM) | CC[C@H]1OC(=O)[C@H](C)[C@@H](O)[C@H](C)[C@@H](O[C@@H]2O[C@H](C)C[C@H](N(C)C)[C@H]2O)[C@](C)(O)C[C@@H](C)CN(CCCN(CCC#N)C(=S)NCCc2ccccc2)[C@H](C)[C@@H](O)[C@]1(C)O [Example 170]
